Laboratory results as given in patent US20030119728A1, “Stable, nasally, orally or sublingually applicable pharmaceutical preparation” (priority 2000, published 2003).

Experiment: Preliminary study of desmopressin preparations with various pH values, 6 weeks at 50° C. in glass flasks
Type: physicochemical
Settings: pH 1.0-7.0 tested, desmopressin content and sum of G1-G4
Procedure: Desmopressin preparations with various pH values (1.0, 2.0, 3.0, 4.0, 5.0, 6.0, and 7.0) were investigated for these preliminary studies. These solutions were stored in glass flasks for 6 weeks at 50° C. and then analysed in the usual way with the use of analytical columns. After 6 weeks the pH values of the seven solutions were unchanged.

With NC(=O)CC[C@@H]1NC(=O)[C@H](Cc2ccccc2)NC(=O)[C@H](Cc2ccc(O)cc2)NC(=O)CCSSC[C@@H](C(=O)N2CCC[C@H]2C(=O)N[C@H](CCCN=C(N)N)C(=O)NCC(N)=O)NC(=O)[C@H](CC(N)=O)NC1=O [desmopressin, 1-deamino-8-D-arginine-vasopressin] as the compound, how does the “pH region in which desmopressin is most stable” value read?
The value was roughly 5.0.
